From ChEMBL document CHEMBL1152860, “Synthesis and antiproliferative activity of 3-amino-N-phenyl-1H-indazole-1-carboxamides” (2009)

Assays:
Type in all cases: functional
HT-29 = experiment: Growth inhibition of human HT-29 cells after 48 hrs by SRB assay; settings: HT-29, 48 h
HL-60(TB) = experiment: Growth inhibition of human HL-60(TB) cells after 48 hrs by SRB assay; settings: HL-60, 48 h
K562 = experiment: Growth inhibition of human K562 cells after 48 hrs by SRB assay; settings: K562, 48 h
MOLT-4 = experiment: Growth inhibition of human MOLT4 cells after 48 hrs by SRB assay; settings: MOLT-4, 48 h
RPMI-8226 = experiment: Growth inhibition of human RPMI8226 cells after 48 hrs by SRB assay; settings: RPMI-8226, 48 h
SR = experiment: Growth inhibition of human SR cells after 48 hrs by SRB assay
A549 = experiment: Growth inhibition of human A549 cells after 48 hrs by SRB assay; settings: A549, 48 h
EKVX = experiment: Growth inhibition of human EKVX cells after 48 hrs by SRB assay
HOP-62 = experiment: Growth inhibition of human HOP62 cells after 48 hrs by SRB assay; settings: HOP-62, 48 h
HOP-92 = experiment: Growth inhibition of human HOP92 cells after 48 hrs by SRB assay; settings: HOP-92, 48 h
NCI-H226 = experiment: Growth inhibition of human NCI-H226 cells after 48 hrs by SRB assay; settings: NCI-H226, 48 h
NCI-H23 = experiment: Growth inhibition of human NCI-H23 cells after 48 hrs by SRB assay; settings: NCI-H23, 48 h
NCI-H322M = experiment: Growth inhibition of human NCI-H322M cells after 48 hrs by SRB assay
NCI-H460 = experiment: Growth inhibition of human NCI-H460 cells after 48 hrs by SRB assay; settings: NCI-H460, 48 h
NCI-H522 = experiment: Growth inhibition of human NCI-H522 cells after 48 hrs by SRB assay; settings: NCI-H522, 48 h
COLO 205 = experiment: Growth inhibition of human COLO205 cells after 48 hrs by SRB assay; settings: COLO 205, 48 h
HCC 2998 = experiment: Growth inhibition of human HCC2998 cells after 48 hrs by SRB assay; settings: HCC 2998, 48 h
HCT-116 = experiment: Growth inhibition of human HCT116 cells after 48 hrs by SRB assay; settings: HCT-116, 48 h
HCT-15 = experiment: Growth inhibition of human HCT15 cells after 48 hrs by SRB assay; settings: HCT-15, 48 h
LOX IMVI = experiment: Growth inhibition of human LOXIMVI cells after 48 hrs by SRB assay
Malme-3M = experiment: Growth inhibition of human MALME-3M cells after 48 hrs by SRB assay
M14 = experiment: Growth inhibition of human M14 cells after 48 hrs by SRB assay; settings: M14, 48 h
SK-MEL-2 = experiment: Growth inhibition of human SK-MEL-2 cells after 48 hrs by SRB assay; settings: SK-MEL-2, 48 h
SK-MEL-28 = experiment: Growth inhibition of human SK-MEL-28 cells after 48 hrs by SRB assay; settings: SK-MEL-28, 48 h
SK-MEL-5 = experiment: Growth inhibition of human SK-MEL-5 cells after 48 hrs by SRB assay; settings: SK-MEL-5, 48 h
UACC-257 = experiment: Growth inhibition of human UACC257 cells after 48 hrs by SRB assay; settings: UACC-257, 48 h
UACC-62 = experiment: Growth inhibition of human UACC62 cells after 48 hrs by SRB assay; settings: UACC-62, 48 h
IGROV-1 = experiment: Growth inhibition of human IGROV1 cells after 48 hrs by SRB assay; settings: IGROV-1, 48 h
OVCAR-3 = experiment: Growth inhibition of human OVCAR-3 cells after 48 hrs by SRB assay; settings: OVCAR-3, 48 h
OVCAR-4 = experiment: Growth inhibition of human OVCAR4 cells after 48 hrs by SRB assay; settings: OVCAR-4, 48 h
OVCAR-5 = experiment: Growth inhibition of human OVCAR5 cells after 48 hrs by SRB assay; settings: OVCAR-5, 48 h
OVCAR-8 = experiment: Growth inhibition of human OVCAR8 cells after 48 hrs by SRB assay; settings: OVCAR-8, 48 h
SK-OV-3 = experiment: Growth inhibition of human SKOV3 cells after 48 hrs by SRB assay; settings: SK-OV-3, 48 h
786-0 = experiment: Growth inhibition of human 786-0 cells after 48 hrs by SRB assay; settings: 786-0, 48 h
A498 = experiment: Growth inhibition of human A498 cells after 48 hrs by SRB assay; settings: A498, 48 h
ACHN = experiment: Growth inhibition of human ACHN cells after 48 hrs by SRB assay
CAKI-1 = experiment: Growth inhibition of human Caki1 cells after 48 hrs by SRB assay; settings: CAKI-1, 48 h
RXF 393 = experiment: Growth inhibition of human […] cells after 48 hrs by SRB assay; settings: RXF 393, 48 h
SN12C = experiment: Growth inhibition of human SN12C cells after 48 hrs by SRB assay
TK-10 = experiment: Growth inhibition of human TK10 cells after 48 hrs by SRB assay; settings: TK-10, 48 h
UO-31 = experiment: Growth inhibition of human UO31 cells after 48 hrs by SRB assay; settings: UO-31, 48 h
PC-3 = experiment: Growth inhibition of human PC3 cells after 48 hrs by SRB assay; settings: PC-3, 48 h
DU-145 = experiment: Growth inhibition of human DU145 cells after 48 hrs by SRB assay; settings: DU-145, 48 h
MCF7 = experiment: Growth inhibition of human MCF7 cells after 48 hrs by SRB assay; settings: MCF7, 48 h
NCI/ADR-RES = experiment: Growth inhibition of human NCI/ADR-RES cells after 48 hrs by SRB assay
MDA-MB-231 = experiment: Growth inhibition of human MDA-MB-231 cells after 48 hrs by SRB assay; settings: MDA-MB-231, 48 h
[1] = Growth inhibition of human Hs 578T cells after 48 hrs by SRB assay
MDA-MB-435 = experiment: Growth inhibition of human MDA-MB-435 cells after 48 hrs by SRB assay; settings: MDA-MB-435, 48 h
BT-549 = experiment: Growth inhibition of human BT549 cells after 48 hrs by SRB assay; settings: BT-549, 48 h
T47D = experiment: Growth inhibition of human T47D cells after 48 hrs by SRB assay
KM12 = experiment: Growth inhibition of human KM12 cells after 48 hrs by SRB assay; settings: KM12, 48 h
SW-620 = experiment: Growth inhibition of human SW620 cells after 48 hrs by SRB assay; settings: SW-620, 48 h
SF-268 = experiment: Growth inhibition of human SF268 cells after 48 hrs by SRB assay; settings: SF-268, 48 h
SF-295 = experiment: Growth inhibition of human SF295 cells after 48 hrs by SRB assay; settings: SF-295, 48 h
SF-539 = experiment: Growth inhibition of human SF539 cells after 48 hrs by SRB assay; settings: SF-539, 48 h
SNB-19 = experiment: Growth inhibition of human SNB19 cells after 48 hrs by SRB assay; settings: SNB-19, 48 h
SNB-75 = experiment: Growth inhibition of human SNB75 cells after 48 hrs by SRB assay; settings: SNB-75, 48 h
U-251 = experiment: Growth inhibition of human U251 cells after 48 hrs by SRB assay; settings: U-251, 48 h

Compound: O=C(Nc1ccc(Cc2ccccc2)cc1)Nc1nn(C(=O)Nc2ccc(Cc3ccccc3)cc2)c2ccccc12
- GI50 (HT-29): > 100 µM
- GI50 (HL-60(TB)): > 100 µM
- GI50 (K562): 40.5 µM
- GI50 (MOLT-4): 63.2 µM
- GI50 (RPMI-8226): > 100 µM
- GI50 (SR): 16.3 µM
- GI50 (A549): > 100 µM
- GI50 (EKVX): > 100 µM
- GI50 (HOP-62): 59.7 µM
- GI50 (HOP-92): 18 µM
- GI50 (NCI-H226): > 100 µM
- GI50 (NCI-H23): > 100 µM
- GI50 (NCI-H322M): > 100 µM
- GI50 (NCI-H460): > 100 µM
- GI50 (NCI-H522): > 100 µM
- GI50 (COLO 205): > 100 µM
- GI50 (HCC 2998): > 100 µM
- GI50 (HCT-116): > 100 µM
- GI50 (HCT-15): > 100 µM
- GI50 (LOX IMVI): 71 µM
- GI50 (Malme-3M): > 100 µM
- GI50 (M14): > 100 µM
- GI50 (SK-MEL-2): > 100 µM
- GI50 (SK-MEL-28): > 100 µM
- GI50 (SK-MEL-5): > 100 µM
- GI50 (UACC-257): > 100 µM
- GI50 (UACC-62): 41.6 µM
- GI50 (IGROV-1): > 100 µM
- GI50 (OVCAR-3): > 100 µM
- GI50 (OVCAR-4): > 100 µM
- GI50 (OVCAR-5): > 100 µM
- GI50 (OVCAR-8): > 100 µM
- GI50 (SK-OV-3): > 100 µM
- GI50 (786-0): > 100 µM
- GI50 (A498): 82.4 µM
- GI50 (ACHN): > 100 µM
- GI50 (CAKI-1): > 100 µM
- GI50 (RXF 393): 30.4 µM
- GI50 (SN12C): > 100 µM
- GI50 (TK-10): > 100 µM
- GI50 (UO-31): > 100 µM
- GI50 (PC-3): > 100 µM
- GI50 (DU-145): 80 µM
- GI50 (MCF7): > 100 µM
- GI50 (NCI/ADR-RES): > 100 µM
- GI50 (MDA-MB-231): 47.1 µM
- GI50 [1]: 74.2 µM
- GI50 (MDA-MB-435): > 100 µM
- GI50 (BT-549): > 100 µM
- GI50 (T47D): > 100 µM
- GI50 (KM12): > 100 µM
- GI50 (SW-620): > 100 µM
- GI50 (SF-268): 75.6 µM
- GI50 (SF-295): > 100 µM
- GI50 (SF-539): > 100 µM
- GI50 (SNB-19): > 100 µM
- GI50 (SNB-75): 33.8 µM
- GI50 (U-251): 70.2 µM

Compound: Nc1nn(C(=O)Nc2c(F)cccc2F)c2ccccc12
- GI50 (HT-29): 74.6 µM
- GI50 (HL-60(TB)): 33.2 µM
- GI50 (K562): < 100 µM
- GI50 (MOLT-4): 32.7 µM
- GI50 (RPMI-8226): 16.1 µM
- GI50 (SR): 12.9 µM
- GI50 (A549): 48.5 µM
- GI50 (EKVX): 84 µM
- GI50 (HOP-62): 51 µM
- GI50 (HOP-92): 17.3 µM
- GI50 (NCI-H226): 98.5 µM
- GI50 (NCI-H23): 95.6 µM
- GI50 (NCI-H322M): < 100 µM
- GI50 (NCI-H460): 33.4 µM
- GI50 (NCI-H522): 55.1 µM
- GI50 (COLO 205): < 100 µM
- GI50 (HCC 2998): 95.8 µM
- GI50 (HCT-116): 34.8 µM
- GI50 (HCT-15): 40.9 µM
- GI50 (LOX IMVI): 49.3 µM
- GI50 (Malme-3M): < 100 µM
- GI50 (M14): 74.7 µM
- GI50 (SK-MEL-2): < 100 µM
- GI50 (SK-MEL-28): 56.3 µM
- GI50 (SK-MEL-5): 39.7 µM
- GI50 (UACC-257): 71.7 µM
- GI50 (UACC-62): 43.9 µM
- GI50 (IGROV-1): 7.7 µM
- GI50 (OVCAR-3): 65.7 µM
- GI50 (OVCAR-4): 57.8 µM
- GI50 (OVCAR-5): < 100 µM
- GI50 (OVCAR-8): 44.2 µM
- GI50 (SK-OV-3): < 100 µM
- GI50 (786-0): < 100 µM
- GI50 (A498): 31.4 µM
- GI50 (ACHN): 50.1 µM
- GI50 (CAKI-1): 45.3 µM
- GI50 (RXF 393): 20.2 µM
- GI50 (SN12C): < 100 µM
- GI50 (TK-10): < 100 µM
- GI50 (UO-31): 18.6 µM
- GI50 (PC-3): < 100 µM
- GI50 (DU-145): 62.3 µM
- GI50 (MCF7): 60 µM
- GI50 (NCI/ADR-RES): 56.5 µM
- GI50 (MDA-MB-231): 98.8 µM
- GI50 [1]: 73 µM
- GI50 (MDA-MB-435): 54.9 µM
- GI50 (BT-549): 28.8 µM
- GI50 (T47D): 68.7 µM
- GI50 (KM12): 86.2 µM
- GI50 (SW-620): 38.3 µM
- GI50 (SF-268): 36.2 µM
- GI50 (SF-295): 54.8 µM
- GI50 (SF-539): 31.4 µM
- GI50 (SNB-19): < 100 µM
- GI50 (U-251): 96.1 µM
